Assay results from patent US9695102B2, “Alkali metal cinnamate powder and method for preparation” (Purac Biochem BV, priority 2009, dated 2017).

How the values were obtained:
Assay type in all cases: physicochemical
[1] = Average moisture content of resulting powder; conditions: resulting powder after drying
[2] = Particle size distribution, Malvern Mastersizer 2000 laser diffraction; parameters: D (0.1) / D (0.5) / D (0.9) / D [3.2] / D [4.3]: unit not given here
From the text: Particle size distribution has been measured with a Malvern Mastersizer 2000® particle size analyzer Measurement. Measuring principle is based on laser diffraction.

[3] = Hausner ratio from tapped and aerated bulk density, Micron Powder Characteristics Tester; conditions: for Hausner Ratio: from tapped and aerated bulk density, flowability; for Tapped Bulk Density: tapped powder; for Aerated Bulk Density: untapped powder
Protocol: (§1) These are all standard measurements described in various text and hand books on powders and their properties. The various measurements were done using a Micron Powder Characteristics Tester™ (Model PT-N) from Hosokawa Micron International Inc.
(§2) The Hausner ratio is determined by measurement of the tapped and untapped (or aerated) bulk density. The angle of repose is determined by measurement of the angle of a cone of powder that is formed by pouring the powder through a glass funnel.

[4] = Angle of repose, Micron Powder Characteristics Tester
Protocol: as §1, §2

[5] = Angle of spatula, Micron Powder Characteristics Tester
Protocol: as §1
The angle of spatula is determined by measurement the difference in the angle of powder—that stays behind on a spatula when a container with said spatula on the bottom and filled with said powder is lowered and the spatula stays on the same height—and the angle of the powder on said spatula after the spatula was tapped by a weight.

| SMILES | average moisture content [1] | D (0.1) [2] | D (0.5) [2] | D (0.9) [2] | D [3.2] [2] | D [4.3] [2] | Span (—) [2] | Hausner Ratio [3] | Hausner Ratio ([3]; listed as Commercially available potassium cinnamate) | Tapped Bulk Density [3] [kg m^−3] | Aerated Bulk Density [3] [kg m^−3] | Angle of repose ([4]; cone of powder poured through glass funnel) | Angle of repose [index] ([4]; flowability index word) | Carr class ([3]; Carr flowability scale based on compaction) | Angle of spatula [index] ([5]; flowability index word) | Angle of spatula ([5]; powder on spatula before and after tapping) |
| --- | --- | --- | --- | --- | --- | --- | --- | --- | --- | --- | --- | --- | --- | --- | --- | --- |
| O=C([O-])C=Cc1ccccc1.[K+] [Experiment 1, potassium cinnamate] | less than 2 wt % | – | – | – | – | – | – | – | – | – | – | – | – | – | – | – |
| O=C([O-])C=Cc1ccccc1.[K+] [Experiment 2, potassium cinnamate] | about 0.5 wt % | – | – | – | – | – | – | – | – | – | – | – | – | – | – | – |
| O=C([O-])C=Cc1ccccc1.[K+] [Potassium cinnamate commercially available] | – | 44 | 240 | 601 | 89 | 286 | 2.32 | 1.66 | about 1.66 | 527 | 318 | – | – | – | – | – |
| O=C([O-])C=Cc1ccccc1.[K+] [Potassium cinnamate of the present disclosure] | – | 114 | 192 | 320 | 178 | 206 | 1.07 | 1.15 | – | 945 | 823 | 35.6 | good | Good | normal | 48 |
